According to paper PMC6893898, “Receptor Interaction Profiles of 4-Alkoxy-Substituted 2,5-Dimethoxyphenethylamines and Related Amphetamines” (Frontiers in Pharmacology, 2019):
Entries after “also recorded” stand apart in the source; their conditions may differ. Where two headings read alike, the source gives them in different places.

Legend:
humans = conditions: ref Shulgin and Shulgin, 1991, cited from earlier work; for Psychoactivity in humans: at the doses tested
human 5-HT2B receptor [1] = biological target: T1, human 5-HT2B receptor (Homo sapiens, UniProt P41595); assay: Activity at the 5-HT2B receptor (FLIPR calcium, HEK 293 cells); format: cell-based
T1 construct: expressed in transfected cells; host or cells: HEK 293
T1 sequence (P41595 whole entry): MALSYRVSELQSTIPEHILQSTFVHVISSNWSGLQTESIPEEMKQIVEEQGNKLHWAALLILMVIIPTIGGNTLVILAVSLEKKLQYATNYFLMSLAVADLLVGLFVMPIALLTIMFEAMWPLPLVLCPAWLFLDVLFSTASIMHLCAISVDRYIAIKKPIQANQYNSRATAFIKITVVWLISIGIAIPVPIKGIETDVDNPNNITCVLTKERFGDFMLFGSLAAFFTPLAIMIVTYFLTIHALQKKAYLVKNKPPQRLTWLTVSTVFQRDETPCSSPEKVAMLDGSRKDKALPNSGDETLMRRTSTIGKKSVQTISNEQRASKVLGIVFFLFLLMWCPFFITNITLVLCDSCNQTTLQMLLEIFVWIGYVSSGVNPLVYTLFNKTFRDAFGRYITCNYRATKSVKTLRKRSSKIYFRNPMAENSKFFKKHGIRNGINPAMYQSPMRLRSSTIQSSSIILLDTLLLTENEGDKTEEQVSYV
Procedure: Activity at the 5-HT2B receptor was examined as previously described ([Luethi et al., 2018]). In summary, HEK 293 cells expressing the human 5-HT2B receptor were seeded at a density of 50,000 cells per well in 96-well poly-D-lysine-coated plates overnight at 37°C. The cells were then incubated in growth medium consisting of high glucose Dulbecco’s modified Eagle’s medium (DMEM) (Invitrogen, Zug, Switzerland), 10% fetal calf serum (non-dialyzed, heat-inactivated), 250 mg/l Geneticin and 10 ml/l PenStrep (Gibco), overnight at 37°C. After removal of the growth medium via snap inversion, calcium indicator Fluo-4-solution (100 µl) was injected into each well (Molecular Probes, Eugene, OR, USA) and incubated for 45 min at 31°C. Afterwards, the Fluo-4 solution was removed (snap inversion) and a further 100 µl of the Fluo-4 solution was added and incubated (45 min, 31°C). Thereafter, using the EMBLA cell washer, the cells were washed just before testing with HBSS and 20 mM HEPES and exposed to 100 µl of assay buffer. The well plate was positioned in the FLIPR and while online, 25 µl of the test compounds diluted in assay buffer were added. Concentration-response curves were calculated using nonlinear regression, and EC50 values were obtained. The maximal activity at the receptors was calculated relative to 5-HT activity which was defined as 100%.

hDAT [2] = biological target: T2, hDAT (Homo sapiens, UniProt Q01959); assay: Radioligand binding, DAT ([3H]WIN35,428); set-up: expressed in transfected cells; host or cells: HEK 293 (membrane preparation)
T2 sequence (Q01959 whole entry): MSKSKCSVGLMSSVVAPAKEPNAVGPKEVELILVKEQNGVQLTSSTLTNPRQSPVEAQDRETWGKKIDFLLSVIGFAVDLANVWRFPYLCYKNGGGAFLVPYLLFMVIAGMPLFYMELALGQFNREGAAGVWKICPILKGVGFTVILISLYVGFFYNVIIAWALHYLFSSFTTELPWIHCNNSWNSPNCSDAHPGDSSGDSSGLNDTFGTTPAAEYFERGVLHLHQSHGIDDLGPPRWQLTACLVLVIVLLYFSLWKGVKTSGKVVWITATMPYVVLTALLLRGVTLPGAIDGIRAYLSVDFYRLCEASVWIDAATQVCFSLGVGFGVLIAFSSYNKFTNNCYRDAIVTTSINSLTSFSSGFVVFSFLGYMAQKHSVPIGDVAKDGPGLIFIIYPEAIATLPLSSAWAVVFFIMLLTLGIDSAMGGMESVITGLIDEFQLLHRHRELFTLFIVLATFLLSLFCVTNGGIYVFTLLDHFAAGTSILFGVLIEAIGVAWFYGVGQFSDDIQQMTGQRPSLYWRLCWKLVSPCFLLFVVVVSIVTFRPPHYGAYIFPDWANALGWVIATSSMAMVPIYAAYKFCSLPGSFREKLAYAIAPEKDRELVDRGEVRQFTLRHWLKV

head-twitch response = test system: head-twitch response; set-up: method as in Halberstadt et al., 2019; conditions: ref Halberstadt et al., 2019; cited from earlier work
rat TAAR1 [3] = biological target: T3, rat TAAR1 (Rattus norvegicus, UniProt Q923Y9); assay: Radioligand binding, rat TAAR1 ([3H]RO5166017)
T3 construct: expressed in transfected cells; host or cells: HEK 293 (membrane preparation)
T3 sequence (Q923Y9 whole entry): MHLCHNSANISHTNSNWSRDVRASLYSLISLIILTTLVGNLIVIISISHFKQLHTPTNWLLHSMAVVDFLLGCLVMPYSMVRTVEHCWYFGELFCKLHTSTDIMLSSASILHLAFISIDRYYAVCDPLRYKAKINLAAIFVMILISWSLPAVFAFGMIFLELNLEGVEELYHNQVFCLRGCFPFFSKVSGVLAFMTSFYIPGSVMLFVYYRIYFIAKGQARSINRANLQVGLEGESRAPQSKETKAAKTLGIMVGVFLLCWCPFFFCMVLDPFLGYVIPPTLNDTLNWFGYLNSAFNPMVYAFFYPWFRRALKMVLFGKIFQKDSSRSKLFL

hNET [4] = biological target: T4, hNET (Homo sapiens, UniProt P23975); assay: Radioligand binding, NET (N-methyl-[3H]nisoxetine); set-up: expressed in transfected cells; host or cells: HEK 293 (membrane preparation)
T4 sequence (P23975 whole entry): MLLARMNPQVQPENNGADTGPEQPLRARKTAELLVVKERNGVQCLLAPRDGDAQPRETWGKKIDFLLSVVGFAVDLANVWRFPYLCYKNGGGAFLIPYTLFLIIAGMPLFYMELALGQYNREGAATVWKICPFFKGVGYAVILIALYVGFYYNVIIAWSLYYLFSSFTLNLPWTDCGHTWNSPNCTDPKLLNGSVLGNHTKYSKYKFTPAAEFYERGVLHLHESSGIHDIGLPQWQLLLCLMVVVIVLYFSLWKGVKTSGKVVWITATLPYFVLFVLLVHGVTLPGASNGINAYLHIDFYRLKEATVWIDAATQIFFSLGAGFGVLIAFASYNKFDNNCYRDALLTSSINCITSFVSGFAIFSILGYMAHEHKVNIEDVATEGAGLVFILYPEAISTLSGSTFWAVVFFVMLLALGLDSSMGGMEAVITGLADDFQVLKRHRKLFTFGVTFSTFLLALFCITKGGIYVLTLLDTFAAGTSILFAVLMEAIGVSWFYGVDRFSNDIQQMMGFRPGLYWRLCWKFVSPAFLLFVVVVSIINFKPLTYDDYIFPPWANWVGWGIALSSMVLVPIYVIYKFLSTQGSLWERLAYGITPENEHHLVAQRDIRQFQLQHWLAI

hSERT [5] = biological target: T5, hSERT (Homo sapiens, UniProt P31645); assay: Radioligand binding, SERT ([3H]citalopram); set-up: expressed in transfected cells; host or cells: HEK 293 (membrane preparation)
T5 sequence (P31645 whole entry): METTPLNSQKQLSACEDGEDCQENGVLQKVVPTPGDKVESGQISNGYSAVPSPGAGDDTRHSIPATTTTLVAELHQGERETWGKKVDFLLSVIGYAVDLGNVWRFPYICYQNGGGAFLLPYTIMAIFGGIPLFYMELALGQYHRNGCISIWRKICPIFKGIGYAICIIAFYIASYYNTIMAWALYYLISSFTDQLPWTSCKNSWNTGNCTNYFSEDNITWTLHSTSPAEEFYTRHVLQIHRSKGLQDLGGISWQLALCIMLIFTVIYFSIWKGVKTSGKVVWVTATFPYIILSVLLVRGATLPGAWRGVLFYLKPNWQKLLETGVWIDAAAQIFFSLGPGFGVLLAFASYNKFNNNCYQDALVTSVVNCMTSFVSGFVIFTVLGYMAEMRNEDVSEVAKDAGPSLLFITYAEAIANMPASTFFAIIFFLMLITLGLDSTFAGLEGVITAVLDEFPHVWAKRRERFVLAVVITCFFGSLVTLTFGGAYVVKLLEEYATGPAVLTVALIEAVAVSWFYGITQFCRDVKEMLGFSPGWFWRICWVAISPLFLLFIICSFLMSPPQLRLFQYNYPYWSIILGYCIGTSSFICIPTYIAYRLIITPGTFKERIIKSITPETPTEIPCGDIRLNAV

α1A adrenergic receptor [6] = biological target: T6, α1A adrenergic receptor (Homo sapiens, UniProt P35348); assay: Radioligand binding, α1A adrenergic receptor ([3H]prazosin)
T6 construct: expressed in transfected cells; host or cells: Chinese hamster ovary cell line (membrane preparation)
T6 sequence (P35348 1-466): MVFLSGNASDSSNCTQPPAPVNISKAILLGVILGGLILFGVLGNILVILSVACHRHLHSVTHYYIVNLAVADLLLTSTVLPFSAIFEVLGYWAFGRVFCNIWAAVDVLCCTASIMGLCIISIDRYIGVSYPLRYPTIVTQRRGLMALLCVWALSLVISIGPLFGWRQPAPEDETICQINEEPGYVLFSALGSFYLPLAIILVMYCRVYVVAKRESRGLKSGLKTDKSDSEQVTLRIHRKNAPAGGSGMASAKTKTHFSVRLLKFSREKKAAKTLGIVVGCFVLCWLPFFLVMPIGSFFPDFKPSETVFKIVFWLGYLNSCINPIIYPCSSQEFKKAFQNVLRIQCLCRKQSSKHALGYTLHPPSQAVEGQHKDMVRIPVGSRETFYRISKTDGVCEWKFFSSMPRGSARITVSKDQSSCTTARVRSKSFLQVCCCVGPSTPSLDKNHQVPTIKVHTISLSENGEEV

mouse TAAR1 [7] = biological target: T7, mouse TAAR1 (Mus musculus, UniProt Q923Y8); assay: Radioligand binding, mouse TAAR1 ([3H]RO5166017)
T7 construct: expressed in transfected cells; host or cells: HEK 293 (membrane preparation)
T7 sequence (Q923Y8 whole entry): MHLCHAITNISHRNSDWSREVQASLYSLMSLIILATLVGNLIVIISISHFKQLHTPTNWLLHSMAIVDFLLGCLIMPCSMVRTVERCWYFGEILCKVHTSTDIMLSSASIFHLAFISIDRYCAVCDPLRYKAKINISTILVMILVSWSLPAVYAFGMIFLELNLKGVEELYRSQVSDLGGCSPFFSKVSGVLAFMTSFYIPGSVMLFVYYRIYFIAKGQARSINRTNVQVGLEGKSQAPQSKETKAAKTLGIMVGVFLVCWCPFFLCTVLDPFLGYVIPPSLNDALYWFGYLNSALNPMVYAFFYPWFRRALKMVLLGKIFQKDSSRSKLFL

5-HT1A receptor [8] = biological target: T8, 5-HT1A receptor (Homo sapiens, UniProt P08908); assay: Radioligand binding, 5-HT1A receptor ([3H]8-OH-DPAT)
T8 construct: expressed in transfected cells; host or cells: HEK 293 (membrane preparation)
T8 sequence (P08908 1-422): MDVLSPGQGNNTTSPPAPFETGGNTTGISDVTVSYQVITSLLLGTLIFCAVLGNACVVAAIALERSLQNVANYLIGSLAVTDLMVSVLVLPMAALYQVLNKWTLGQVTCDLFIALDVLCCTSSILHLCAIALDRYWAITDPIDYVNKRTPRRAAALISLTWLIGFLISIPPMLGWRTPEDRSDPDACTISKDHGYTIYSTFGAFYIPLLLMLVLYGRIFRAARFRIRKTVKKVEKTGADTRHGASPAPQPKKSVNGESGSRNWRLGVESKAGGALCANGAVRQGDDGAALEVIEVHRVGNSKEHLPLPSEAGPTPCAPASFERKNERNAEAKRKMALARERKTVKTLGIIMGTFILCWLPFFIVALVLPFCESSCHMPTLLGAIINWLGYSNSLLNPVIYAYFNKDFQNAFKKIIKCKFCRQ

α2A adrenergic receptor [9] = biological target: T9, α2A adrenergic receptor (Homo sapiens, UniProt P08913); assay: Radioligand binding, α2A adrenergic receptor ([3H]rauwolscine)
T9 construct: expressed in transfected cells; host or cells: Chinese hamster lung cell line (membrane preparation)
T9 sequence (P08913 1-465): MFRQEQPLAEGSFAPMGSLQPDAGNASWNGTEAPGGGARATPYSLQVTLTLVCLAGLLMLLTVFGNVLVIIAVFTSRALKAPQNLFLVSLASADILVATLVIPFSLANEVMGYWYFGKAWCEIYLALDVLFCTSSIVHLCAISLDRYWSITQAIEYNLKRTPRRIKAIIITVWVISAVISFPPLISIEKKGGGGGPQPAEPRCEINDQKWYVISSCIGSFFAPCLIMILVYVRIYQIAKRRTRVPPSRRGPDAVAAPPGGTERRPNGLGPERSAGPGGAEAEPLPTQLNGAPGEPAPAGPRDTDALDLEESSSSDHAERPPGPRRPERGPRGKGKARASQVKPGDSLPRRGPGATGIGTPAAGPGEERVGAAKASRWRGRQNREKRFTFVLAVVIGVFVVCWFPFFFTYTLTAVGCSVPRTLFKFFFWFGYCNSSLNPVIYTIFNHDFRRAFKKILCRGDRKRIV

dopaminergic D2 receptor [10] = biological target: T10, dopaminergic D2 receptor (Homo sapiens, UniProt P14416); assay: Radioligand binding, dopaminergic D2 receptor ([3H]spiperone)
T10 construct: expressed in transfected cells; host or cells: HEK 293 (membrane preparation)
T10 sequence (P14416 whole entry): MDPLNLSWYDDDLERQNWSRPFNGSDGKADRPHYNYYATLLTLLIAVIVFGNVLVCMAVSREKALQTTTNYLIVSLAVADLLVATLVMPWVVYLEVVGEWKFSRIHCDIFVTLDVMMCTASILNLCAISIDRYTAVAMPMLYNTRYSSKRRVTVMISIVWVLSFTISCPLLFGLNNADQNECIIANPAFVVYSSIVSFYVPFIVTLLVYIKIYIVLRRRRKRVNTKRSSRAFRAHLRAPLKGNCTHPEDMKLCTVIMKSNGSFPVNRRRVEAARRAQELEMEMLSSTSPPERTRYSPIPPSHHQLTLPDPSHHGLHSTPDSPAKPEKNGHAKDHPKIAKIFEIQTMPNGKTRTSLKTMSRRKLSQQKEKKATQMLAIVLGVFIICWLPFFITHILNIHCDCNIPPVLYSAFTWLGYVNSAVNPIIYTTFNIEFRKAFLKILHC

5-HT1A receptor [11] = biological target: T8, 5-HT1A receptor; conditions: cited from earlier work
human 5-HT2B receptor [12] = biological target: T1, human 5-HT2B receptor; set-up: method as in Luethi et al., 2018; conditions: ref Luethi et al., 2018, cited from earlier work
hNET [13] = biological target: T4, hNET; set-up: expressed in transfected cells; host or cells: HEK 293 (membrane preparation); method as in Simmler et al., 2013; conditions: read-out: hNET Ki ± SD; N-methyl-[3H]nisoxetine; ref Simmler et al., 2013; cited from earlier work
hNET [14] = biological target: T4, hNET; assay: Monoamine uptake transporter inhibition, [3H]norepinephrine, HEK 293 cells; conditions: 10 µM
α2A adrenergic receptor [15] = biological target: T9, α2A adrenergic receptor; set-up: method as in Simmler et al., 2013; conditions: read-out: α2A Ki ± SD; [3H]rauwolscine; ref Simmler et al., 2013; cited from earlier work
hDAT [16] = biological target: T2, hDAT; assay: Monoamine uptake transporter inhibition, [3H]dopamine, HEK 293 cells; conditions: 10 µM
rat TAAR1 [17] = biological target: T3, rat TAAR1; set-up: method as in Simmler et al., 2013; conditions: read-out: rat TAAR1 Ki ± SD; [3H]RO5166017; ref Simmler et al., 2013; cited from earlier work
hDAT [18] = biological target: T2, hDAT; set-up: expressed in transfected cells; host or cells: HEK 293 (membrane preparation); conditions: read-out: DAT uptake inhibition EC50; known low potency in this assay; no reference given; cited from earlier work
dopaminergic D2 receptor [19] = biological target: T10, dopaminergic D2 receptor; set-up: method as in Simmler et al., 2013; conditions: read-out: D2 Ki ± SD; [3H]spiperone; ref Simmler et al., 2013; cited from earlier work
hDAT [20] = biological target: T2, hDAT; set-up: expressed in transfected cells; host or cells: HEK 293 (membrane preparation); method as in Simmler et al., 2013; conditions: [3H]WIN35,428; ref Simmler et al., 2013; read-out: hDAT Ki ± SD; cited from earlier work
hSERT [21] = biological target: T5, hSERT; assay: Monoamine uptake transporter inhibition, [3H]5-HT, HEK 293 cells; conditions: 10 µM
mouse TAAR1 [22] = biological target: T7, mouse TAAR1; set-up: method as in Simmler et al., 2013; conditions: read-out: mouse TAAR1 Ki ± SD; [3H]RO5166017; ref Simmler et al., 2013; cited from earlier work
α1A adrenergic receptor [23] = biological target: T6, α1A adrenergic receptor; set-up: method as in Simmler et al., 2013; conditions: read-out: α1A Ki ± SD; [3H]prazosin; ref Simmler et al., 2013; cited from earlier work

Structure (SMILES): COc1cc(OC(C)C)c(OC)cc1CCN [2C-O-4, 2,5-dimethoxy-4-isopropoxyphenethylamine]
- Psychoactivity in humans (humans): fairly inactive in humans; also recorded: not psychoactive in humans

Structure (SMILES): CCCCOc1cc(OC)c(CC(C)N)cc1OC (stereo not shown) [MBM, 4-butoxy-2,5-dimethoxyamphetamine]
- Psychoactivity in humans (humans): no psychoactive effects

Structure (SMILES): COc1cc(OC)c(OC)cc1CC(C)N (stereo not shown) [TMA-2, 2,4,5-trimethoxyamphetamine]
- EC50 (human 5-HT2B receptor [1]): 0.27 µM
- Emax (human 5-HT2B receptor [1]; HEK293, relative to 5-HT = 100%, read-out: h5-HT2B Activation efficacy max ± SD): 78 ± 5%
- Ki (hDAT [2]): > 8.5 µM
- Behavioral potency in head-twitch response (head-twitch response): equipotent
- Ki (rat TAAR1 [3]): 3.1 ± 0.1 µM
- Ki (hNET [4]): > 8.7 µM
- Ki (hSERT [5]): > 7.5 µM
- Ki (α1A adrenergic receptor [6]): > 6.5 µM
- Ki (mouse TAAR1 [7]): > 4.4 µM
- Ki (5-HT1A receptor [8]): > 17 µM
- Psychoactivity in humans (humans): displayed psychedelic activity
- Potency in humans relative to 3,4,5-trimethoxyamphetamine (TMA) (humans; EMCDDA, 2004): roughly 6 times
- Ki (α2A adrenergic receptor [9]): > 4.7 µM
- Ki (dopaminergic D2 receptor [10]): > 13 µM

Structure (SMILES): CC(N)Cc1ccccc1 (stereo not shown) [amphetamine]
- Ki (5-HT1A receptor [11]; read-out: 5-HT1A receptor Ki, ref Simmler et al., 2013): 6.7 µM

Structure (SMILES): COc1cc(CCN)c(OC)cc1Br [2C-B, 4-bromo-2,5-dimethoxyphenethylamine]
- EC50 (human 5-HT2B receptor [12]; read-out: h5-HT2B Activation potency EC50 ± SD): 0.075 ± 0.014 µM
- h5-HT2B Activation efficacy max ± SD (human 5-HT2B receptor [12]; relative to 5-HT): 52 ± 26%
- Ki (5-HT1A receptor [11]; read-out: h5-HT1A Receptor binding Ki ± SD, [3H]8-OH-DPAT, ref Luethi et al., 2018): 0.311 ± 0.046 µM

Structure (SMILES): CCOc1cc(OC)c(CC(C)N)cc1OC (stereo not shown) [MEM, 2,5-dimethoxy-4-ethoxyamphetamine]
- Behavioral potency in head-twitch response (head-twitch response): equipotent
- Psychoactivity in humans (humans): displayed psychedelic activity

Structure (SMILES): COc1cc(CCN)cc(OC)c1OC [mescaline, 3,4,5-trimethoxyphenethylamine]
- Psychoactive oral dose in humans (humans; oral, humans): > 200 mg

Structure (SMILES): CNC(C)Cc1ccc2c(c1)OCO2 (stereo not shown) [MDMA]
- Ki (hNET [13]): 30.5 ± 8 µM
- Effect on NE uptake into the cells (hNET [14]): markedly reduced
- Ki (α2A adrenergic receptor [15]): 15 ± 0.2 µM
- Effect on DA uptake into the cells (hDAT [16]): moderately reduced
- Ki (rat TAAR1 [17]): 0.37 ± 0.12 µM
- EC50 (hDAT [18]): 17 µM
- Ki (dopaminergic D2 receptor [19]): 25.2 ± 2 µM
- Ki (hDAT [20]): 6.5 ± 2.5 µM
- Effect on 5-HT uptake into the cells (hSERT [21]): markedly reduced
- Ki (mouse TAAR1 [22]): 2.4 ± 1.1 µM
- Ki (α1A adrenergic receptor [23]): > 6 µM

Structure (SMILES): COc1cc(OC)c(OC)cc1CCN [2C-O-1, 2,4,5-trimethoxyphenethylamine]
- Psychoactivity in humans (humans): fairly inactive in humans; also recorded: not psychoactive in humans

Structure (SMILES): CCCOc1cc(OC)c(CC(C)N)cc1OC (stereo not shown) [MPM, 2,5-dimethoxy-4-propoxyampehtamine]
- Behavioral potency in head-twitch response (head-twitch response): equipotent
- Psychoactivity in humans (humans): no psychoactive effects
